PubChem BioAssay AID1996
Converted amounts (≈) assume the structure as drawn.

Settings: buffer; pH 7.4; 200.0 µM

Row | Compound | solubility kinetic
1 | O=C1C[C@H](NC(=O)OCc2ccccc2)CO1 | > 35.3 µg/mL
2 | N/C(CS(=O)(=O)c1ccccn1)=N\OC(=O)c1ccccc1Cl | 46.5 µg/mL (≈ 131 µM)
3 | CCOC(=O)CNC(=O)C12CC3CC(CC(C3)C1)C2 | 37.8 µg/mL (≈ 142 µM)
4 | CN1CCN(c2ccc(CNC(=O)c3ccc4c(c3)OCCO4)cc2)CC1 | 49.7 µg/mL (≈ 135 µM)
5 | CCCOc1ccc(N2C(=O)C/C(=C\c3ccccc3)C2=O)cc1 | < 0.7 µg/mL
6 | CC(=O)c1cccc(Nc2nc(-c3sc(C)nc3C)cs2)c1 | 1 µg/mL (≈ 3.04 µM)
7 | O=C(NCCCNC(=O)c1ccc(F)cc1)c1ccc(F)cc1 | 30.9 µg/mL (≈ 97.1 µM)
8 | CNC(=S)Nc1cccc(C(=O)O)c1 | > 31.5 µg/mL
9 | O=C(CC1SC(N2CCOCC2)=NC1=O)Nc1cccc(C(F)(F)F)c1 (stereo not given) | 27.8 µg/mL (≈ 71.8 µM)
10 | COc1ccc(C(=O)O)cc1S(=O)(=O)Nc1ccc(N2CCCCC2)cc1 | 54.7 µg/mL (≈ 140 µM)
11 | NC(=O)c1ccccc1N=Cc1cccnc1 | > 33.8 µg/mL
12 | O=C(CSc1ccc(Cl)cc1)NCc1ccncc1 | > 43.9 µg/mL
13 | CC12CC3CC(C)(C1)CC(NCc1ccncc1)(C3)C2.Cl | > 46 µg/mL
14 | CC(=O)c1ccc(S(=O)(=O)NCc2cccnc2)cc1 | > 43.6 µg/mL
15 | COc1ccc(N(C)C(=S)Nc2ccc3nc(C)c(C)nc3c2)cc1 | 4.1 µg/mL (≈ 11.6 µM)
16 | CN1CCC(C)(O)C2CCCCC21 (stereo not given) | > 27.5 µg/mL
17 | CC(C(=O)OCC(=O)NC1CCCC1)N1C(=O)c2ccccc2C1=O (stereo not given) | 50 µg/mL (≈ 145 µM)
18 | Cl.c1cncc(CNC2CCCCC2)c1 | > 34 µg/mL
19 | O=C(CSc1nncc2ccccc12)Nc1cccc(C(=O)O)c1 | > 50.9 µg/mL
20 | COCc1cc(OC(=O)N(C)C)nc(-c2ccccc2)n1 | > 43.1 µg/mL

Row | Compound | solubility kinetic
21 | N#CCc1c(C#N)c(N)nc(N2CCN(C=O)CC2)c1C#N | > 44.3 µg/mL
22 | Cn1cccc1/C=C(/C#N)c1ccc(F)cc1 | 2.9 µg/mL (≈ 12.8 µM)
23 | Cc1ccc(CNC(=O)c2ccc[nH]2)cc1 | > 32.1 µg/mL
24 | CCOC(=O)CSc1nc2ccccc2n2c(C)nnc12 | > 45.4 µg/mL
25 | COc1ccccc1/C=[N+](\[O-])C1SC(=S)N(C)C1(C)C (stereo not given) | > 46.6 µg/mL
26 | CCOc1ccccc1C1NC(=O)CCC1[N+](=O)[O-] (stereo not given) | > 39.6 µg/mL
27 | Nc1cc(S(=O)(=O)N2CCCCC2)ccc1N1CCOCC1 | 38.7 µg/mL (≈ 119 µM)
28 | Cc1cc(C)n2nc(SCCC(=O)NCc3ccccc3)nc2n1 | > 51.2 µg/mL
29 | CCCCn1c(N)c(N(CC)C(=O)c2cccc(C)c2)c(=O)[nH]c1=O | > 51.7 µg/mL
30 | CCS(=O)(=O)N1CCN(c2ncnc3sc(C)c(C)c23)CC1 | > 51.1 µg/mL
31 | Cc1ccc(NC(=O)c2ccc(CSc3ccccn3)cc2)c(O)c1 | 1 µg/mL (≈ 2.85 µM)
32 | O=C(Nc1ccccc1)c1ccc(-c2ccc(F)cc2)s1 | < 0.6 µg/mL
33 | CS(=O)(=O)Nc1ccc(S(=O)(=O)N2CCCC2)cc1 | > 45.7 µg/mL
34 | CC(=O)c1ccc(O)c(CSC2=NCCS2)c1 | 35.2 µg/mL (≈ 132 µM)
35 | CSc1ncccc1C(=O)NCc1ccccc1Cl | 38.1 µg/mL (≈ 130 µM)
36 | COc1ccc2c(c1)CC/C(=C/c1ccccn1)C2=O | 38.5 µg/mL (≈ 145 µM)
37 | Clc1ccc(-c2cc(CN3CCCCC3)no2)cc1Cl | 0.4 µg/mL (≈ 1.29 µM)
38 | CCOC(=O)c1c(C=O)c2ccccc2n1Cc1ccccc1F | < 0.7 µg/mL
39 | CCCN1CCC(NC(=O)C2CCN(C(C)=O)CC2)CC1 | > 44.3 µg/mL

Further lines, results first:

Row | solubility kinetic | Compound
40 | > 44 µg/mL | Nc1cc(=O)[nH]c(SCC(=O)c2ccc(O)cc2O)n1
41 | 32.8 µg/mL (≈ 139 µM) | CC1CCN(C(=S)c2cccc(O)c2)CC1
42 | 0.7 µg/mL (≈ 2.15 µM) | O=C(Nc1ccc(F)c(Cl)c1)c1nsc(Cl)c1Cl
43 | 11.5 µg/mL (≈ 38.3 µM) | Cc1nc2ccc(NC(=O)Cc3cccc(F)c3)cc2s1
44 | 6.2 µg/mL (≈ 16.6 µM) | O=C(NCCc1ccccc1)C1CCN(Cc2cccc3ccccc23)CC1
45 | 7.7 µg/mL (≈ 30.5 µM) | Cc1ccc(SC(C)C(=O)NC(N)=O)c(C)c1 (stereo not given)
46 | > 51.2 µg/mL | COc1cc(C(=O)Nc2ccc3c(c2)ncn3C)cc(OC)c1OC
47 | > 43.1 µg/mL | COc1cc(CNC(=O)c2cnc(C)cn2)cc(OC)c1
48 | < 0.7 µg/mL | Cc1c(-c2ccncc2)oc2ccc(Br)cc2c1=O
49 | 5.9 µg/mL (≈ 11.8 µM) | O=C(COC(=O)/C=C/c1ccc(Br)o1)Nc1cccc(S(=O)(=O)N2CCOCC2)c1
50 | 34.3 µg/mL (≈ 123 µM) | O=C(Oc1ccc(Br)cc1)c1cccnc1
51 | 30.6 µg/mL (≈ 149 µM) | Nc1ncnc(Nc2cccc(F)c2)n1
52 | 18.6 µg/mL (≈ 83.7 µM) | N#CN(Cc1ccccc1)Cc1ccccc1
53 | > 47.2 µg/mL | O=C(NCc1cccs1)C1CC(=O)N(Cc2ccccc2)C1 (stereo not given)
54 | 8.2 µg/mL (≈ 28.2 µM) | CC(NC(=S)NC(=O)c1cccs1)c1ccccc1 (stereo not given)
55 | > 41.4 µg/mL | O=c1oc2ccccc2c(N2CCOCC2)c1[N+](=O)[O-]
56 | 2.1 µg/mL (≈ 6.82 µM) | Cc1noc(C)c1C(=O)Nc1nc2ccc(Cl)cc2s1
57 | > 45.5 µg/mL | O=C(CNC(=O)c1ccco1)N/N=C/c1ccc(O)cc1O
58 | > 52.9 µg/mL | CCN(C(=O)CCCCC(=O)N(CC)c1ccccc1)c1ccccc1
59 | 32.1 µg/mL (≈ 109 µM) | O=S(=O)(Cc1ccccc1Cl)NCc1ccccc1
60 | > 26.6 µg/mL | NC(N)=NC(N)=Nc1ccccc1
